From patent US20200017496A1 (priority 2017, published 2020)
Where “and” joins values, the source holds several entries; their conditions need not be identical. Identical values can stand only once. Like-named read-outs stand apart in the source and are kept apart here.

Legend:
Assay in all cases: MIC of compounds alone and combined with antibacterials, broth microdilution (CLSI)
Format in all cases: cell-based
[1] = test system: Klebsiella pneumoniae (KPN) isolates; details: for MIC ATB in combination: AF1 @ 4 μg/mL
Procedure, shortened: (§1)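 Compound MIC, and antibacterial MIC at each fixed compound level, taken by visual inspection as lowest concentration stopping growth. Inoculum: log-phase bacteria, final 5·10^5 CFU/mL, cation-adjusted Mueller-Hinton broth; 16-20 h, 35° C, ambient air.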

[2] = test system: Serratia marcescens (SMA) isolates
Procedure, shortened: as §1

[3] = test system: Morganella morganii (MMO) isolates; details: for MIC: Morganella morganii
Procedure, shortened: as §1

[4] = test system: Klebsiella oxytoca (KOX) isolates; details: for MIC ATB in combination: AF1 @ 4 μg/mL; for MIC: Klebsiella oxytoca
Procedure, shortened: as §1

CC1(C)S[C@@H]2[C@H](NC(=O)[C@H](N)c3ccc(O)cc3)C(=O)N2[C@H]1C(=O)O [AMX, Amoxicillin]
MIC [1]: >128 µg/mL and 128 µg/mL
MIC ATB in combination ([1]; KPN 6299): 256 µg/mL
MIC ATB in combination ([1]; KPN 131119): 256 µg/mL
MIC ATB in combination ([1]; KPN 140513): >512 µg/mL
MIC ATB in combination ([1]; KPN 190270): 16 µg/mL
MIC ATB in combination ([1]; KPN 190551): 64 µg/mL
MIC ATB in combination ([1]; KPN 200047): 16 µg/mL
MIC ATB in combination ([1]; KPN 200327): 32 µg/mL
MIC ATB in combination ([1]; KPN 260252): 256 µg/mL
MIC ATB in combination ([1]; KPN 260376): 32 µg/mL
MIC ATB in combination ([1]; KPN 270077): 4 µg/mL
MIC ATB in combination ([1]; KPN 700603): 4 µg/mL
MIC ATB in combination ([1]; KPN ARA): 256 µg/mL
MIC ATB in combination ([1]; KPN BAA-1898): 256 µg/mL
MIC ATB in combination ([1]; KPN LIB): 16 µg/mL
MIC ATB in combination ([1]; KPN UFR22_O): 64 µg/mL
MIC ATB in combination ([1]; KPN UFR23): 32 µg/mL
MIC ATB in combination ([1]; KPN UFR24): 64 µg/mL
MIC ATB in combination ([1]; KPN UFR25): 512 µg/mL
MIC ATB in combination ([1]; KPN UFR65): 256 µg/mL
MIC ATB in combination ([1]; KPN UFR66): 256 µg/mL
MIC ATB in combination ([1]; KPN UFR67): 256 µg/mL
MIC ATB in combination ([1]; KPN UFR68): 256 µg/mL
MIC ATB in combination ([1]; KPN UFR76): >512 µg/mL
MIC ATB in combination ([1]; KPN UFR77): 64 µg/mL
MIC ATB in combination ([1]; KPN UFR78): >512 µg/mL
MIC ATB in combination ([1]; KPN UFR79): >512 µg/mL
MIC ATB in combination ([1]; KPN UFR81): >512 µg/mL
MIC ATB in combination ([1]; KPN UFR215): 64 µg/mL
MIC ATB in combination ([1]; KPN UFR216): 32 µg/mL
MIC ATB in combination ([1]; KPN UFR217): 64 µg/mL
MIC ATB in combination ([1]; KPN UFR220): 512 µg/mL
MIC ATB in combination ([1]; KPN UFR221): 256 µg/mL
MIC ATB in combination ([1]; KPN UFR222): >512 µg/mL
MIC ATB in combination ([1]; KPN UFR227O): 512 µg/mL
MIC ([1]; Klebsiella pneumoniae): > 256 µg/mL
MIC ([1]; Klebsiella pneumoniae, BAA1898, strain KPN BAA-1898 (TEM-1, SHV-11, SHV-12, KPC-2), ATB alone, read-out: MIC): > 1020 µg/mL
MIC ([1]; Klebsiella pneumoniae, BAA1898, strain KPN BAA-1898 (TEM-1, SHV-11, SHV-12, KPC-2), CLA @ 4 μg/ml+ ATB, read-out: MIC): > 512 µg/mL
MIC ([1]; Klebsiella pneumoniae, strain KPN 6299 (TEM-1, SHV-11, OXA-163), ATB alone, read-out: MIC): > 1020 µg/mL
MIC ([1]; Klebsiella pneumoniae, strain KPN 6299 (TEM-1, SHV-11, OXA-163), CLA @ 4 μg/ml+ ATB, read-out: MIC): > 512 µg/mL
MIC ([1]; Klebsiella pneumoniae, strain KPN 131119 (TEM-1, SHV-11, CTX-M-15, OXA-1, OXA-48), CLA @ 4 μg/ml+ ATB, read-out: MIC): > 512 µg/mL
MIC ([1]; Klebsiella pneumoniae, strain KPN 200047 (TEM-1, SHV-32, CTX-M-15, OXA-1), CLA @ 4 μg/ml+ ATB, read-out: MIC): 32 µg/mL
MIC ([1]; Klebsiella pneumoniae, strain KPN 200327 (TEM-1, SHV-1, CTX-M-15, OXA-1), CLA @ 4 μg/ml+ ATB, read-out: MIC): 32 µg/mL
MIC ([1]; Klebsiella pneumoniae, strain KPN 270077 (TEM-1, SHV-1, CTX-M-15), CLA @ 4 μg/ml+ ATB, read-out: MIC): 32 µg/mL
MIC ([1]; Klebsiella pneumoniae, strain KPN 700603 (SHV-18, OXA-2), CLA @ 4 μg/ml+ ATB, read-out: MIC): 8 µg/mL
MIC ([1]; Klebsiella pneumoniae, strain KPN LIB (SHV-11, OXA-48), CLA @ 4 μg/ml+ ATB, read-out: MIC): > 512 µg/mL
MIC ([1]; Klebsiella pneumoniae, strain KPN UFR68 (TEM-1, SHV-11, CTX-M-15, KPC-3), ATB alone, read-out: MIC): > 1020 µg/mL
MIC [2]: 128 µg/mL and >256 µg/mL
MIC ATB in combination [2]: 128 µg/mL
MIC ATB in combination ([2]; SMA UFR30, AF1 @ 4 μg/mL): 256 µg/mL
MIC ATB in combination ([2]; SMA UFR135, AF1 @ 4 μg/mL): 256 µg/mL
MIC ATB in combination ([2]; SMA UFR136, AF1 @ 4 μg/mL): 256 µg/mL
MIC ATB in combination ([2]; SMA UFR137, AF1 @ 4 μg/mL): 64 µg/mL
MIC ATB in combination ([2]; SMA UFR138, AF1 @ 4 μg/mL): 64 µg/mL
MIC ATB in combination ([2]; SMA UFR139, AF1 @ 4 μg/mL): 64 µg/mL
MIC ATB in combination ([2]; SMA UFR143, AF1 @ 4 μg/mL): 256 µg/mL
MIC ATB in combination ([2]; SMA UFR239, AF1 @ 4 μg/mL): 64 µg/mL
MIC ([2]; Serratia marcescens): > 128 µg/mL
MIC ([2]; Serratia marcescens, strain SMA UFR239 (ESAC), CLA @ 4 μg/ml+ ATB, read-out: MIC): 64 µg/mL
MIC ATB in combination [3]: 128 µg/mL
MIC ATB in combination ([3]; MMO 200321, AF1 @ 4 μg/mL): 256 µg/mL
MIC ATB in combination ([3]; MMO UFR240, AF1 @ 4 μg/mL): 32 µg/mL
MIC ATB in combination ([3]; MMO UFR243, AF1 @ 4 μg/mL): 64 µg/mL
MIC ATB in combination ([3]; MMO UFR244, AF1 @ 4 μg/mL): 64 µg/mL
MIC ATB in combination ([3]; MMO UFR245, AF1 @ 4 μg/mL): 64 µg/mL
MIC ATB in combination ([3]; MMO UFR246, AF1 @ 4 μg/mL): 64 µg/mL
MIC ATB in combination ([3]; MMO UFR247, AF1 @ 4 μg/mL): 32 µg/mL
MIC [3]: > 128 µg/mL
MIC ([3]; strain MMO 200321 (TEM-1, CTX-M-15, OXA-1), ATB alone): > 256 µg/mL
MIC ([3]; strain MMO 200321 (TEM-1, CTX-M-15, OXA-1), CLA @ 4 μg/ml+ ATB): > 128 µg/mL
MIC ([3]; strain MMO UFR144 (TEM-1, CTX-M-15), ATB alone): > 128 µg/mL
MIC ([3]; strain MMO UFR144 (TEM-1, CTX-M-15), CLA @ 4 μg/ml+ ATB): > 128 µg/mL
MIC ([3]; strain MMO UFR240 (CTX-M-9), ATB alone): > 128 µg/mL
MIC ([3]; strain MMO UFR240 (CTX-M-9), CLA @ 4 μg/ml+ ATB): > 128 µg/mL
MIC ([3]; strain MMO UFR241 (TEM-1, CTX-M-15), ATB alone): > 128 µg/mL
MIC ([3]; strain MMO UFR241 (TEM-1, CTX-M-15), CLA @ 4 μg/ml+ ATB): > 128 µg/mL
MIC ([3]; strain MMO UFR242 (TEM-52), ATB alone): > 128 µg/mL
MIC ([3]; strain MMO UFR242 (TEM-52), CLA @ 4 μg/ml+ ATB): > 128 µg/mL
MIC ATB in combination ([4]; KOX UFR21): 256 µg/mL
MIC ATB in combination ([4]; KOX UFR173): 4 µg/mL
MIC ATB in combination ([4]; KOX UFR223): 16 µg/mL
MIC ATB in combination ([4]; KOX UFR224): 64 µg/mL
MIC [4]: > 128 µg/mL
MIC ([4]; strain KOX UFR21 (TEM-1, CTX-M-15, OXA-48), ATB alone): > 256 µg/mL
MIC ([4]; strain KOX UFR21 (TEM-1, CTX-M-15, OXA-48), CLA @ 4 μg/ml+ ATB): > 128 µg/mL
MIC ([4]; strain KOX UFR223 (SHV-11, OXA-48), ATB alone): > 128 µg/mL
MIC ([4]; strain KOX UFR223 (SHV-11, OXA-48), CLA @ 4 μg/ml+ ATB): > 128 µg/mL
MIC ([4]; strain KOX UFR224 (CTX-M-15, OXA-48), ATB alone): > 128 µg/mL
MIC ([4]; strain KOX UFR224 (CTX-M-15, OXA-48), CLA @ 4 μg/ml+ ATB): > 128 µg/mL
